The assay deals with T1, GCS (Canis lupus familiaris, UniProt A0A8I3MXG6).
T1 sequence (A0A8I3MXG6 1-394): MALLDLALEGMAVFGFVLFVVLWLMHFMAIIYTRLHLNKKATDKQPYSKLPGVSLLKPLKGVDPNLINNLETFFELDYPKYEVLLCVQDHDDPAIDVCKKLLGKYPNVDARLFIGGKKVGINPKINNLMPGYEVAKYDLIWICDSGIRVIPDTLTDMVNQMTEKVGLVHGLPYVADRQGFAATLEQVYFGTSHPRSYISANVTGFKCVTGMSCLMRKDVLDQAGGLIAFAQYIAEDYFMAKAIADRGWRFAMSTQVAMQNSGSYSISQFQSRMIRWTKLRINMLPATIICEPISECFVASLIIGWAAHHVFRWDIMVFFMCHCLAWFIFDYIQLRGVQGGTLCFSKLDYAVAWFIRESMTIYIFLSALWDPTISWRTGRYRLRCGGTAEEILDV
Put plainly: Assay 1: GCS Enzymatic Assay (MDCK cell lysate, C6-NBD-Ceramide, LC/MS). It counts as biochemical, canine. Conditions: Table 2; for IC50: data without asterisk, read-out: IC50 (nM) generated from Assay 1; for % inhibition generated from Assay 1: data marked by *. Summed up: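 LC/MS/MS measurement of glucosylceramide and NBD-ceramide after a 1 h, 37 °C reaction with 100 μM UDP-glucose and 10 μM C6-NBD-ceramide gave IC50s or percent inhibition.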

With `O=C(N[C@H](CN1CCCC1)[C@H](O)c1ccc(OC2CCOCC2)c(Cl)c1)C(F)(F)c1cc2cc(Cl)ccc2o1` [Compound 105, N-((1R,2R)-1-(3-chloro-4-((tetrahydro-2H-pyran-4-yl)oxy)phenyl)-1-hydroxy-3-(pyrrolidin-1-yl)propan-2-yl)-2-(5-chlorobenzofuran-2-yl)-2,2-difluoroacetamide], the IC50 is below 50 nM.

Consider `O=C(N[C@H](CN1CCCC1)[C@H](O)c1ccc2c(c1)OCCO2)/C(CCc1ccc2cc(F)ccc2c1)=N/O` [Compound 106, (E)-N-((1R,2R)-1-(2,3-dihydrobenzo[b][1,4]dioxin-6-yl)-1-hydroxy-3-(pyrrolidin-1-yl)propan-2-yl)-4-(6-fluoronaphthalen-2-yl)-2-(hydroxyimino)butanamide], for which the IC50 was below 50 nM. Same read-out and setting: for `CC(C)Oc1ccc([C@@H](O)[C@@H](CN2CCCC2)NC(=O)C(F)(F)CCc2ccc3ccccc3c2)cn1` [Compound 107, 2,2-difluoro-N-((1R,2R)-1-hydroxy-1-(6-isopropoxypyridin-3-yl)-3-(pyrrolidin-1-yl)propan-2-yl)-4-(naphthalen-2-yl)butanamide] the value was below 50 nM; for `O=C(N[C@H](CN1CCCC1)[C@H](O)c1ccc(OCC(F)(F)F)nc1)C(F)(F)CCc1ccc2ccccc2c1` [Compound 108, 2,2-difluoro-N-((1R,2R)-1-hydroxy-3-(pyrrolidin-1-yl)-1-(6-(2,2,2-trifluoroethoxy)pyridin-3-yl)propan-2-yl)-4-(naphthalen-2-yl)butanamide], 50 to 5000 nM; for `O=C(N[C@H](CN1CCCC1)[C@H](O)c1cc(F)c2c(c1)OCCO2)C(F)(F)CCc1ccc2ccccc2c1` [Compound 109, 2,2-difluoro-N-((1R,2R)-1-(8-fluoro-2,3-dihydrobenzo[b][1,4]dioxin-6-yl)-1-hydroxy-3-(pyrrolidin-1-yl)propan-2-yl)-4-(naphthalen-2-yl)butanamide], below 50 nM. With `O=C(N[C@H](CN1CCCC1)[C@H](O)c1ccc(OC2CCOCC2)c(Cl)c1)C(F)(F)CCc1ccc2ccccc2c1` [Compound 110, N-((1R,2R)-1-(3-chloro-4-((tetrahydro-2H-pyran-4-yl)oxy)phenyl)-1-hydroxy-3-(pyrrolidin-1-yl)propan-2-yl)-2,2-difluoro-4-(naphthalen-2-yl)butanamide], the IC50 is below 50 nM. As to `O=C(CCc1ccc2cc(F)ccc2c1)C(=O)N[C@H](CN1CCCC1)[C@H](O)c1cc(F)c2c(c1)OCCO2` [Compound 111, N-((1R,2R)-1-(8-fluoro-2,3-dihydrobenzo[b][1,4]dioxin-6-yl)-1-hydroxy-3-(pyrrolidin-1-yl)propan-2-yl)-4-(6-fluoronaphthalen-2-yl)-2-oxobutanamide], the IC50 is below 50 nM. Same read-out and setting: for `O=C(N[C@H](CN1CCCC1)[C@H](O)c1ccc(OC2CC2)c(Cl)c1)/C(CCc1ccc2cc(F)ccc2c1)=N/O` [Compound 112, (E)-N-((1R,2R)-1-(3-chloro-4-cyclopropoxyphenyl)-1-hydroxy-3-(pyrrolidin-1-yl)propan-2-yl)-4-(6-fluoronaphthalen-2-yl)-2-(hydroxyimino)butanamide] the value was below 50 nM.

Regarding `CC(C)Oc1cc([C@@H](O)[C@@H](CN2CCCC2)NC(=O)C(F)(F)CCc2ccc3cc(F)ccc3c2)ccn1` [Compound 114, 2,2-difluoro-4-(6-fluoronaphthalen-2-yl)-N-((1R,2R)-1-hydroxy-1-(2-isopropoxypyridin-4-yl)-3-(pyrrolidin-1-yl)propan-2-yl)butanamide], the “% inhibition generated from Assay 1” value is listed as “A* (the compound had a % inhibition of a percent inhibition of greater than or equal to about 50%)”. For `O=C(N[C@H](CN1CCCC1)[C@H](O)c1cc(F)c2c(c1)OCCO2)/C(CCc1ccc2cc(F)ccc2c1)=N/O` [Compound 115, (E)-N-((1R,2R)-1-(8-fluoro-2,3-dihydrobenzo[b][1,4]dioxin-6-yl)-1-hydroxy-3-(pyrrolidin-1-yl)propan-2-yl)-4-(6-fluoronaphthalen-2-yl)-2-(hydroxyimino)butanamide], the IC50 was below 50 nM. As to `O=C(N[C@H](CN1CCCC1)[C@H](O)c1ccc(OC2CCOCC2)c(Cl)c1)C(F)(F)C1Cc2ccc(Cl)cc2C1` (stereo partly drawn) [Compound 116, 2-(5-chloro-2,3-dihydro-1H-inden-2-yl)-N-((1R,2R)-1-(3-chloro-4-((tetrahydro-2H-pyran-4-yl)oxy)phenyl)-1-hydroxy-3-(pyrrolidin-1-yl)propan-2-yl)-2,2-difluoroacetamide], the IC50 is below 50 nM. On to `O=C(N[C@H](CN1CCC1)[C@H](O)c1cc(F)c2c(c1)OCCO2)/C(CCc1ccc2cc(F)ccc2c1)=N/O` [Compound 118, (E)-N-((1R,2R)-3-(azetidin-1-yl)-1-(8-fluoro-2,3-dihydrobenzo[b][1,4]dioxin-6-yl)-1-hydroxypropan-2-yl)-4-(6-fluoronaphthalen-2-yl)-2-(hydroxyimino)butanamide], for which the IC50 lay within 50 to 5000 nM. In the case of `CC1(C)CCc2cc([C@@H](O)[C@@H](CN3CCCC3)NC(=O)C(F)(F)c3cc4cc(Cl)ccc4o3)ccc2O1` [Compound 119, 2-(5-chlorobenzofuran-2-yl)-N-((1R,2R)-1-(2,2-dimethylchroman-6-yl)-1-hydroxy-3-(pyrrolidin-1-yl)propan-2-yl)-2,2-difluoroacetamide], the “% inhibition generated from Assay 1” value is recorded as “A* (the compound had a % inhibition of a percent inhibition of greater than or equal to about 50%)”. As to `O=C(N[C@H](CN1CCCC1)[C@H](O)c1ccc(OC2CC2)nc1)C(F)(F)CCc1ccc2ccccc2c1` [Compound 120, N-((1R,2R)-1-(6-cyclopropoxypyridin-3-yl)-1-hydroxy-3-(pyrrolidin-1-yl)propan-2-yl)-2,2-difluoro-4-(naphthalen-2-yl)butanamide], the “% inhibition generated from Assay 1” value was “A* (the compound had a % inhibition of a percent inhibition of greater than or equal to about 50%)”.

Take `CN1CCC(Oc2ccc([C@@H](O)[C@@H](CN3CCCC3)NC(=O)C(F)(F)CCc3ccc4ccccc4c3)cc2Cl)CC1` [Compound 121, N-((1R,2R)-1-(3-chloro-4-((l-methylpiperidin-4-yl)oxy)phenyl)-1-hydroxy-3-(pyrrolidin-1-yl)propan-2-yl)-2,2-difluoro-4-(naphthalen-2-yl)butanamide]: the “% inhibition generated from Assay 1” value is “B* (the compound had a % inhibition of greater than or equal to about 3% but less than about 50%)”. In the case of `O=C(N[C@H](CN1CCC1)[C@H](O)c1ccc(OC2CC2)c(Cl)c1)C(=O)c1cc2cc(Cl)ccc2o1` [Compound 122, N-((1R,2R)-3-(azetidin-1-yl)-1-(3-chloro-4-cyclopropoxyphenyl)-1-hydroxypropan-2-yl)-2-(5-chlorobenzofuran-2-yl)-2-oxoacetamide], the “% inhibition generated from Assay 1” value was “A* (the compound had a % inhibition of a percent inhibition of greater than or equal to about 50%)”.

On to `CN1CCC(Oc2ccc([C@@H](O)[C@@H](CN3CCCC3)NC(=O)C(F)(F)c3cc4cc(Cl)ccc4o3)cc2Cl)CC1` [Compound 123, N-((1R,2R)-1-(3-chloro-4-((l-methylpiperidin-4-yl)oxy)phenyl)-1-hydroxy-3-(pyrrolidin-1-yl)propan-2-yl)-2-(5-chlorobenzofuran-2-yl)-2,2-difluoroacetamide], for which the “% inhibition generated from Assay 1” value was “A* (the compound had a % inhibition of a percent inhibition of greater than or equal to about 50%)”. On to `O=C(N[C@H](CN1CCCC1)[C@H](O)c1ccc(OC2CC2)c(F)c1)C(F)(F)CCc1ccc2ccccc2c1` [Compound 125, N-((1R,2R)-1-(4-cyclopropoxy-3-fluorophenyl)-1-hydroxy-3-(pyrrolidin-1-yl)propan-2-yl)-2,2-difluoro-4-(naphthalen-2-yl)butanamide], for which the IC50 is below 50 nM. On the same count and under the same terms, the value for `O=C(N[C@H](CN1CCCC1)[C@H](O)c1ccc(OC2CC2)c(F)c1)C(F)(F)c1cc2cc(Cl)ccc2o1` [Compound 126, 2-(5-chlorobenzofuran-2-yl)-N-((1R,2R)-1-(4-cyclopropoxy-3-fluorophenyl)-1-hydroxy-3-(pyrrolidin-1-yl)propan-2-yl)-2,2-difluoroacetamide] was below 50 nM; that for `O=C(N[C@H](CN1CCCC1)[C@H](O)c1ccc(N2CCOCC2)c(Cl)c1)C(F)(F)c1cc2cc(Cl)ccc2o1` [Compound 127, N-((1R,2R)-1-(3-chloro-4-morpholinophenyl)-1-hydroxy-3-(pyrrolidin-1-yl)propan-2-yl)-2-(5-chlorobenzofuran-2-yl)-2,2-difluoroacetamide] was 50 to 5000 nM; that for `O=C(N[C@H](CN1CCCC1)[C@H](O)c1ccc(OCCN2CCC2)c(Cl)c1)C(F)(F)c1cc2cc(Cl)ccc2o1` [Compound 128, N-((1R,2R)-1-(4-(2-(azetidin-1-yl)ethoxy)-3-chlorophenyl)-1-hydroxy-3-(pyrrolidin-1-yl)propan-2-yl)-2-(5-chlorobenzofuran-2-yl)-2,2-difluoroacetamide] was below 50 nM. On the same count and under the same terms, the value for `O=C(N[C@H](CN1CCCC1)[C@H](O)c1ccc(OC2COC2)c(Cl)c1)C(F)(F)CCc1ccc2ccccc2c1` [Compound 129, N-((1R,2R)-1-(3-chloro-4-(oxetan-3-yloxy)phenyl)-1-hydroxy-3-(pyrrolidin-1-yl)propan-2-yl)-2,2-difluoro-4-(naphthalen-2-yl)butanamide] was below 50 nM.

For the compound `O=C(N[C@H](CN1CCCC1)[C@H](O)c1ccc(OC2COC2)c(Cl)c1)C(F)(F)c1cc2cc(Cl)ccc2o1` [Compound 130, N-((1R,2R)-1-(3-chloro-4-(oxetan-3-yloxy)phenyl)-1-hydroxy-3-(pyrrolidin-1-yl)propan-2-yl)-2-(5-chlorobenzofuran-2-yl)-2,2-difluoroacetamide], the 50% inhibitory concentration (IC50) was below 50 nM.

What is called IC50 is the concentration at which inhibition is half-maximal.
